Results: patent US20260234116A1, “CYTOTOXIC EPOXYKETONE COMPOUNDS, PRECURSORS, COMPOSITIONS, AND METHODS OF USE” (Memorial Sloan-Kettering Cancer Center, priority 2023, published 2026)

How the values were obtained:
[1] = Stability of β-ketoacid substrates (decarboxylation, 1H-NMR or SPE-MS/MS); assay type: physicochemical
Method: To assess rates of decarboxylation under conditions relevant to storage, biochemical assays, and cellular assays, we investigated the stability of eponemycin-based β-ketoacids 11a and 11c under a variety of conditions as shown in below Table C.
For samples stored neat, β-ketoacid 11 (lyophilized powder) was aliquoted into 1.5-2 mg samples in glass vials and placed under Ar. Samples were stored on the bench top (20-25° C.), in at 4° C. refrigerator or in a −20° C. freezer. At each time point, an entire aliquot was dissolved in CD3OD (600 μL) analyzed by ^1H-NMR for decarboxylation to the corresponding isopropyl ketone byproduct 22. The degree of decarboxylation was determined by comparing integrations of two singlet peaks at 1.40 and 1.33 ppm, arising from the α,α-dimethyl groups in the β-ketoacid 11, to two doublet peaks at 1.09 and 1.06 ppm, arising from the isopropyl methyl groups in the decarboxylation product 22. A septuplet corresponding to the methine proton of the isopropyl group was also observed at 2.91 ppm.
For samples stored in PBS, aliquots of β-ketoacid 11 were dissolved in deuterated PBS (600 μL) and incubated in a 37° C. shaking incubator. At each time point, one aliquot was removed and analyzed by ^1H-NMR as above. NMR changes observed in deuterated PBS were similar to those observed in CD3OD above.
For samples stored in RPMI, β-ketoacid 11 (lyophilized powder) was dissolved in EtOH to a working stock concentration of 20 mM. The sample was diluted in RPMI to 100 μM (1000 μL) and incubated at 37° C. At each time point, an aliquot (50 μL) was removed from the master sample, transferred to a 96-well plate, quenched with 4 vol MeOH, centrifuged at 4,000 g to precipitate debris, and immediately analyzed by SPE-MS/MS to quantitate β-ketoacid 11 remaining.

[2] = molecular target: EpnF (Streptomyces hygroscopicus, UniProt V5RMU9); experiment: Enzyme kinetic analysis by SPE-MS/MS assay; assay type: biochemical; details: relative to 11n
Method: SPE-MS/MS analyses were carried out on an Agilent RapidFire 365 High-Throughput Mass Spectrometry System with 6495 triple quadrupole mass spectrometer. Determination of initial velocity: EpnF stock at 100 μM was diluted 10-fold in EpnF Buffer to a 10 μM working solution, which was further diluted to 8 concentrations (10-0.005 μM) in EpnF Buffer (intermediate volume 1350 μL, concentrations calculated for 1500 μL theoretical final volume corresponding to addition of substrate solutions below). The 8 EpnF enzyme dilutions were aliquoted (90 μL) into the corresponding 8 tubes of PCR tube strips (12 strips, one per time point; Thermo Scientific, AB-2000). The β-ketoacid 11 (20 mM in EtOH) was diluted to 10 μM in EpnF Buffer, then 10 μL of this solution was added to each of the tubes (1 μM final concentration, 100 μL final volume) to initiate the reaction. Samples were incubated in a heated shaker at 37° C. and 225 rpm for up to 120 min, and one tube strip was removed at each time point. Each tube was quenched with 5% formic acid in EpnF Buffer (100 μL), pipetted vigorously, and flash frozen on dry ice. Samples were thawed then centrifuged to precipitate protein and transferred to a conical-bottom 96-well plate (Thermo Scientific/Nunc, 249944) for SPE-MS/MS analysis. Measurement of Km and Vmax: Using the data from the initial velocity experiments above, an appropriate EpnF enzyme concentration was selected for each β-ketoacid 11 at which the rate of conversion to the epoxyketone 12 remained linear at 10 min (0.50 μM for 11n and 0.05 μM for all other substrates). Each substrate (20 mM in EtOH) was diluted to 1 mM in EpnF Buffer, then diluted to 8 concentrations (100-0.5 μM) in EpnF Buffer (intermediate volume 1350 μL, concentrations calculated for 1500 μL theoretical volume corresponding to addition of enzyme solutions below). The 8 substrate dilutions were aliquoted (90 μL) into the corresponding 8 tubes of PCR tube strips (12 strips, one per time point; Thermo Scientific, AB-2000). The EpnF enzyme stock solution was diluted in EpnF Buffer to the appropriate concentration for each substrate, then 10 μL of this solution was added to each of the tubes (100 μL final volume) to initiate the reaction. For the 0-min time point, 5% formic acid in EpnF Buffer was added to the β-ketoacid substrate before addition of the enzyme. Samples were incubated in a heated shaker at 37° C. and 225 rpm for up to 10 min, and one tube strip was removed at each time point. Each tube was quenched by addition of 5% formic acid in EpnF Buffer (100 μL), pipetted vigorously, and flash frozen on dry ice. Samples were thawed then centrifuged to precipitate proteins and the supernatants were transferred to a conical-bottom 96-well plate (Thermo Scientific/Nunc, 249944) for SPE-MS/MS analysis. Km and Vmax values for each substrate were calculated by Michaelis-Menten analysis. To obtain a quantitative assessment of EpnF substrate specificity, we developed a kinetic assay (10 min) using SPE-MS/MS (solid-phase extraction/triple quadrupole mass spectrometry; Agilent RapidFire 365 with 6495 MS) to enable direct detection of both substrates and products.

EpnF, sequence (V5RMU9 entry or part of it): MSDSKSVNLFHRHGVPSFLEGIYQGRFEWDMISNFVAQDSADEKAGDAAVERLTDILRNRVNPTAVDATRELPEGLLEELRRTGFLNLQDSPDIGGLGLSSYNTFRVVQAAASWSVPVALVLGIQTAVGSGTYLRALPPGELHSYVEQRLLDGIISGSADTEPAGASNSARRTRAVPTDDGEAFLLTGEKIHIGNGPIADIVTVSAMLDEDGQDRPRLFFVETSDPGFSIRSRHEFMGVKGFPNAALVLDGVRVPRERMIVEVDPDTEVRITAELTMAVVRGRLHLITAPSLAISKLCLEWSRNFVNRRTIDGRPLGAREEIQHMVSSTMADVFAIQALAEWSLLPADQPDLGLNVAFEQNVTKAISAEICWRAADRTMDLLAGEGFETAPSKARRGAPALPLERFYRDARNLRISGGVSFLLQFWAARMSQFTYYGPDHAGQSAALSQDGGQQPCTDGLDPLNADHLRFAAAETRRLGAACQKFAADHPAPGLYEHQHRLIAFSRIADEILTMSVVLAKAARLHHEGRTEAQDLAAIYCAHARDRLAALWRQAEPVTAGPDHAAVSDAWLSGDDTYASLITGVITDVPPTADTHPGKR

## CC(C)CCCCC(=O)N[C@@H](CO)C(=O)N[C@@H](CC(C)C)C(=O)C(C)(C)C(=O)O [Compound 11a, (4S)-4-[(2S)-3-Hydroxy-2-(6-methylheptanamido)propanamido]-2,2,6-trimethyl-3-oxoheptanoic acid]
[1]; RPMI medium, RPMI, 37° C.
  half-life at 100 μM: 2.5 h
[1]; deuterated PBS, PBS, 37° C.
  half-life: 4.5 h
[1]; neat at low temperatures, buffer or media at 37° C.
  stability / rate of decarboxylation (in words): fairly stable when stored neat at low temperatures
[1]; neat lyophilized powder, neat, 4° C.
  half-life: > 336 h
[1]; neat lyophilized powder, neat, 25° C.
  half-life: 120 h
[1]; neat lyophilized powder, neat, −20° C.
  half-life: > 336 h
[1]; neat, 4° C.
  % remaining at last time point: d (80%)
[1]; neat, −20° C.
  % remaining at last time point: d (95%)
[2]
  converted more efficiently than 11n: ≈ 20 fold
